The values below come from patent publication US6372208B1, “Method of reducing an immune response to a recombinant virus” (The Trustees of the University of Pennsylvania, priority 1996, dated 2002).

Read-outs that look alike come from different tables or passages of the source.

Assay [1] concerns E1-deleted adenovirus (H5.010CMVlacZ, H5.010CBALP).
For assay [2], the system named is recombinant adenoviruses H5.010CBALP and H5.010CMVlacZ. The experiment in a line: Lung-directed adenovirus gene transfer and readministration, transgene expression by histochemistry (Example 2). It is filed as in vivo, C57BL/6 mice. Particulars: lung, readministered day 28, read day 31. As to the method: Female C57BL/6 mice (6˜8 week old) were infected with suspensions of H5.010CBALP (1×10^9 pfu in 50 μl of PBS) via the trachea at day 0 and similarly with H5.010CMVlacZ at day 28. One group of such mice was used as a control. Another group of mice were acutely depleted of CD4^+ cells by i.p. injection of antibody to CD4^+ cells (GK1.5; ATCC No. TIB207, 1:10 dilution of ascites) at the time of the initial gene therapy (days −3, 0, and +3). A third group of mice was injected with IL-12 (1 μg intratracheal or 2 μg, i.p. injections) at the time of the first administration of virus (days 0 and +1). A fourth group of mice was injected with gamma interferon. (1 μg intratracheal or 2 μg, i.p. injections) at the time of the first administration of virus (days 0 and +1).
When mice were subsequently euthanized and necropsied at days 3, 28, or 31, lung tissues were prepared for cryosections, while bronchial alveolar lavage (BAL) and mediastinal lymph nodes (MLN) were harvested for immunological assays.
The lung tissues were evaluated for ALP expression at day 3 and day 28 by histochemical staining following the procedures of Yang I, cited above. β-galactosidase expression was assayed at day 31 by X-gal histochemical staining. The results described below were obtained from the alkaline phosphatase histochemical stains (magnification ×100) or β-galactosidase X-gal stains (magnification ×100).

Assay [3] shares this test system. The experiment in a line: Liver-directed adenovirus gene transfer and readministration (Example 3). It is filed as in vivo, C57BL/6 mice. Particulars: liver, readministered day 28, read day 31. As to the method: Experiments substantially identical to those described in Example 2 above were conducted in which viral vectors were administered into the blood for introduction of the transgene into the liver (rather than intratracheal delivery into the lung).
Female C57BL/6 mice (6-8 weeks old) were injected with suspensions of H5.010CBALP (1×10^9 pfu in 50 μl of PBS) i.p. at day 0 and similarly with H5.010CMVlacZ at day 28. One group of such mice was used as a control. Another group of mice was acutely depleted of CD4^+ cells by i.p. injection of antibody to CD4^+ cells (GK1.5; ATCC No. TIB207, 1:10 dilution of ascites) at the time of the initial gene therapy (days −3, 0, and +3). A third group of mice was injected with IL-12 (2 μg, i.p. injections) at the time of the first administration of virus (days 0 and +1). A fourth group of mice was injected with gamma interferon (2 μg, i.p. injections) at the time of the first administration of virus (days 0 and +1) .
When mice were subsequently euthanized and necropsied at days 3, 28, or 31, liver tissues were prepared for cryosections according to the procedures used above for lung tissue in Example 2.
The cryosection results were substantially similar for liver-directed gene therapy according to this method as for the lung-directed therapy of Example 2 above. The results described below were obtained from the alkaline phosphatase histochemical stains (magnification ×100) or β-galactosidase X-gal stains (magnification ×100).

Assay [4] relates to human Ad5 recombinant vector. The experiment in a line: Neutralizing antibody to adenovirus in BAL (Hela cell lacZ transduction). It is filed as in vivo, C57BL/6 mice. The following applies: day 28, versus control mice. On the procedure: BAL samples obtained from animals 28 days after primary exposure to recombinant virus were evaluated for neutralizing antibodies to adenovirus and anti-adenovirus antibody isotypes as follows. The same four groups of C57BL/6 mice, i.e., control, CD4^+ depleted, IL-12 treated and IFN-γ treated, were infected with H5.010BALP. Neutralizing antibody was measured in serially-diluted BAL samples (100 μl) which were mixed with H5.010CBlacZ (1×10^6 pfu in 20 μl), incubated for 1 hour at 37° C., and applied to 80% confluent Hela cells in 96 well plates (2×10^4 cells per well). After 60 minutes of incubation at 37° C., 100 μl of DMEM containing 20% FBS was added to each well. Cells were fixed and stained for β-galactosidase expression the following day.
(§1) The results are shown graphically in FIGS. 1A through 1C, which summarize neutralizing antibody titer, and the relative amounts (OD405) of IgG and IgA present in BAL samples.

The test system of the next assay is H5.010CBlacZ. In words: Adenovirus-specific IgG and IgA in BAL by ELISA. It is filed as in vivo, C57BL/6 mice. Particulars: day 28, versus control mice. On the procedure: Adenovirus-specific antibody isotype was determined in BAL by using an enzyme-linked immunosorbent assay (ELISA). Briefly, 96-well plates were coated with 100 μl of PBS containing 5×10^9 particles of H5.010CBlacZ for 18 hours at 4° C. The wells were washed 5 times with PBS. After blocking with 200 μl of 2% BSA in PBS, the plates were rinsed once with PBS and incubated with 1:10 diluted BAL samples for 90 minutes at 4° C. Thereafter, the wells were extensively washed and refilled with 100 μl of 1:1000 diluted ALP-conjugated anti-mouse IgG or IgA (Sigma). The plates were incubated, subsequently washed 5 times, and 100 μl of the substrate solution (p-nitrophenyl phosphate, PNPP) was added to each well. Substrate conversion was stopped by the addition of 50 μl of 0.1M EDTA, and reactions were read at 405 nm.
as §1
On the technique in general: An ELISA detects its analyte on a solid surface through an enzyme-linked reagent.

Turning to `O=P1(N(CCCl)CCCl)NCCCO1` (stereo not shown) [cyclophosphamide], the transgene expression result in assay [1] (liver) was “transgene expression was prolonged”. In assay [1] (liver, at higher doses), the “formation of neutralizing antibody” value is “formation of neutralizing antibody was prevented” and the vector readministration entry is “allowing successful vector readministration”. In addition, the “CD4 and CD8 T helper cell activation to adenovirus capsid protein” value in assay [1] (liver, short course at the time of virus delivery) is “successfully interrupt both CD4 and CD8 T helper cell activation”. Further, in assay [1] (lung), the “formation of neutralizing antibodies” value was “prevented formation of neutralizing antibodies at all doses” and the transgene expression result is “stabilized transgene expression at high dose”.
On to gamma interferon [IFN-γ], for which the “gene transfer upon second administration of virus (lacZ)” value in assay [2] and in assay [3] was “efficient gene transfer was accomplished upon a second administration of virus” in each case. In addition, in assay [4], the “neutralizing antibody in BAL” value was “decreased as compared to the control animals not treated with cytokine, but not to the extent obtained with those treated with IL-12”. In addition, the “virus specific IgA in BAL” value in the assay on H5.010CBlacZ is “decreased as compared to the control animals not treated with cytokine, but not to the extent obtained with those treated with IL-12”.
